The term EC50 denotes the concentration at which the effect is half-maximal.

Here are results for two molecules from US8846643B2, “Phosphonates with reduced toxicity for treatment of viral infections” (The Regents of the University of California, priority 2010, dated 2014).

Molecules are shown by their SMILES. Where two headings read alike, the source gives them in different places.

Data set [1] has as its system Vaccinia. The settings on record: reported previously; read-out: EC50 for vaccinia inhibition; cited from earlier work.
A further data set has as its system MT-2 cells. Briefly: cytotoxicity in MT-2 cells. As to conditions: MT-2 cells.
A short description of data set [2]: cytotoxicity in MT-2 cells. As to conditions: human.
For data set [3], the system named is HIV-1. Description: microbe, parasite or virus in culture. The settings on record: Human immunodeficiency virus 1, MT2.
Data set [4] concerns HCV genotype 1b replicon (BM4-5). Briefly: anti-HCV activity in genotype 1b replicon (BM4-5). It counts as cell-based, hepatitis C virus. The settings on record: for EC50: Hepatitis C virus, BM4-5, read-out: EC50 (μM) BM4-5(1b). (In general: In antiviral work, replicon cells carry a viral genome segment that copies itself.)
Another data set concerns HIV-1NL43. Briefly: HIV-1 replication in human peripheral blood mononuclear cells. It counts as cell-based.
The test system of data set [5] is Cowpox. The settings on record: data from Beadle et al.; cited from earlier work.
Data set [6] deals with HCV genotype 2a replicon (JFH-1). Briefly: anti-HCV activity in genotype 2a replicon (JFH-1). The class given is cell-based, hepatitis C virus. The settings on record: Hepatitis C virus, read-out: EC50 (μM) JFH-1 (2a).
The nature of data set [7]: cytotoxicity (CC50) in HCV replicon cells / Huh 7.5 liver cells. As to conditions: human.
A short description of another data set: in vitro. The settings on record: human, HFF fibroblasts.
Data set [8] deals with HCMV. The settings on record: data from Beadle et al.; cited from earlier work.
The subject of data set [9] is Cowpox. Description: organism not typed. As to conditions: read-out: EC50 (μM) Cowpox. The class given is cell-based.
In data set [10] the test system is Vaccinia. Briefly: microbe, parasite or virus in culture. As to conditions: Orthopoxvirus vaccinia. It counts as cell-based.
The next data set has as its system HSV-1. Briefly: antiviral activity against HSV-1, plaque reduction assay in HFF cells. The class given is cell-based, herpes simplex virus, type 1. The settings on record: Human alphaherpesvirus 1, HFF, read-out: EC50 (μM) HSV-1. In general terms: Plaques are areas of infected cells; plaque reduction assays count them against a control.
A further data set concerns Huh 7.5 cells. Briefly: cytotoxicity (CC50) in HCV replicon cells / Huh 7.5 liver cells. As to conditions: cytotoxicity in replicon cells.
Data set [11] concerns HIV-1. As to conditions: HIV-1 infected MT-2 cells.
Data set [12] in a line: cytotoxicity in human PBMCs.
Data set [13] relates to HCMV. Briefly: antiviral activity against HCMV, plaque reduction assay in HFF cells. The settings on record: Human betaherpesvirus 5, HFF, read-out: EC50 (μM) HCMV. The class given is cell-based, human cytomegalovirus.

As for `CCCCCCCCCCCCCCCCCCOCCOP(=O)(O)CO[C@H](CO)Cn1cnc2c(N)ncnc21` [Cmpd 1, octadecyloxyethyl 9-(S)-[3-hydroxy-2-(phosphonomethoxy)propyl]adenine, reference compound], the EC50 in the data set with Vaccinia [1] is 20 nM; in the data set on HIV-1 [3] it was 0.1 nM; in data set [4], 1.55 ± 0.5 µM; with Cowpox [5], 0.05 ± 0.04 µM; in data set [6], 1.65 ± 0.33 µM; with HCMV [8], 0.003 ± 0.001 µM. Besides, the CC50 in the data set with MT-2 cells came out at 33 nM; in [2], 30 ± 20 nM; in data set [7] it was 35600 nM; in the data set “in vitro”, 580 ± 300 nM. Besides, the “activity against HIV-1 in human PBMCs (in words)” value with HIV-1NL43 (HIV-1 infected human PBMCs) is “highly active and selective”.

Turning to `CCCCCCCCCCCCCCCCCCOCCOP(=O)(O)CO[C@H](COC)Cn1cnc2c(N)ncnc21` [Cmpd 15, Octadecyloxyethyl (S)-9-[(3-methoxy-2-phosphonomethoxy)propyl]adenine], the EC50 was 30 nM in the data set with HIV-1 [3]; above 20 µM with Cowpox [9]; 1.43 ± 0.38 µM in data set [4]; around 5 nM with HIV-1NL43 (Human immunodeficiency virus 1, PBMC, HIV-1NL43 in human PBMCs); 18.3 ± 2.4 µM in the data set on Vaccinia [10] (read-out: EC50 (μM) Vaccinia); 18.3 µM in the data set with Vaccinia [10] (read-out: EC50 for vaccinia inhibition). The half-maximal effective concentration (EC50) in [6] stood at 2.38 ± 1.09 µM; in the data set with HSV-1, 45.7 ± 10.1 µM; with HCMV [13], 1.55 ± 0.4 µM. For the same molecule, in [4] (HCV replication in vitro), the “anti-HCV activity (in words)” value is given as “potent inhibitory activity”. In addition, the CC50 is above 150000 nM in the data set with Huh 7.5 cells, above 150000 nM in data set [7] (Huh 7.5 liver cells), above 10000 nM in data set [12] and 23800 ± 2600 nM in the data set “in vitro”. The “anti-HIV activity (in words)” value in the data set on HIV-1 [11] is “potent inhibitory activity”.
